In patent US12378243B2, “Quinoline compounds as inhibitors of KRAS” (Incyte Corporation, priority 2021, dated 2025):

Assays:
KRAS G12D = KRAS G12D (Homo sapiens, UniProt P01116, G12D); experiment: GDP-GTP exchange assay, KRAS G12D; format: biochemical; conditions: bodipy-loaded KRAS G12D 2.5 nM, GppNHp 500 uM, SOS1 150 nM; 4 hours pre-incubation, 2 hours incubation; read-out: G12D_exchange
In short: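 Nucleotide exchange started with 1 mM GppNHp and 300 nM SOS1, then 2 h at ambient temperature. IC50 from four-parameter logistic fit with variable Hill slope.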

Caco-2 cells = experiment: Caco2 assay (permeability, A-B); format: in vitro ADME; conditions: Table 4; Papp absorptive direction (A-B), test compound 50 μM, 120 minutes at 37° C.
In short: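 Caco-2 monolayers grown 22-25 days on Transwells, used only at TEER ≥300 Ω·cm^2. Compound at 50 μM in HBSS added apically, receiver HBSS with 4% BSA; 120 min at 37 °C. LCMS quantification; Papp from receiver flux slope, membrane area and initial donor amount.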

KRAS G12V mutant = KRAS G12V mutant (Homo sapiens, UniProt P01116, G12V); experiment: GDP-GTP exchange assay, KRAS G12V; format: biochemical; conditions: bodipy loaded KRAS G12V 2.5 nM; 3 hours incubation after adding GppNHp-SOS1 mixture; read-out: G12V_exchange
Chain of KRAS G12V mutant (P01116 1-188 isoform P01116-2 G12V): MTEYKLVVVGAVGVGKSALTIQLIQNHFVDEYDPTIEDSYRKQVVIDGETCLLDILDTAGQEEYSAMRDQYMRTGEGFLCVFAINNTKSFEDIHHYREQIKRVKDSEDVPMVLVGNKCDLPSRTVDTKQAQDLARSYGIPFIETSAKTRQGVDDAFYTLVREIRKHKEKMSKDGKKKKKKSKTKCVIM

Chain of KRAS G12D (P01116 1-188 isoform P01116-2 G12D): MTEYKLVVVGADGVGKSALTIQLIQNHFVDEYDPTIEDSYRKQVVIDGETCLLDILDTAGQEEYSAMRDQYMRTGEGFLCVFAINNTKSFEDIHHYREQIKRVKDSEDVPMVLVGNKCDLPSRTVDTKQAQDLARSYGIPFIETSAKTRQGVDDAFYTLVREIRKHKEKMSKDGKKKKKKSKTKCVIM

IC50 (KRAS G12D) [nM]	Caco-2 (Caco-2 cells)	IC50 (KRAS G12V mutant) [nM]	Compound
< 100	+++ (a Caco-2 value of >1)	< 100	Cc1nc2c(F)c(-c3cccc(Cl)c3Cl)c(CCC#N)cc2c2c1cc([C@@H](C)NC(=O)c1cscn1)n2[C@H]1[C@H]2CN[C@@H]1C2 [Example 59, N-((1R)-1-(1-((1R,4R,5S)-2-Azabicyclo[2.1.1]hexan-5-yl)-8-(2-cyanoethyl)-7-(2,3-dichlorophenyl)-6-fluoro-4-methyl-1H-pyrrolo[3,2-c]quinolin-2-yl)ethyl)thiazole-4-carboxamide]
< 100	+++ (a Caco-2 value of >1)	100 to 1000	Cc1nc2c(F)c(-c3cccc(Cl)c3Cl)c(CCC#N)cc2c2c1cc([C@@H](C)N(C)C(=O)C1CC1)n2[C@H]1[C@H]2CN[C@@H]1C2 [Example 60, N-((1R)-1-(1-((1R,4R,5S)-2-Azabicyclo[2.1.1]hexan-5-yl)-8-(2-cyanoethyl)-7-(2,3-dichlorophenyl)-6-fluoro-4-methyl-1H-pyrrolo[3,2-c]quinolin-2-yl)ethyl)-N-methylcyclopropanecarboxamide]
< 100	++ (a Caco-2 value of >0.5 but ≤1)	< 100	CC(O)c1nc2c(F)c(-c3cccc(Cl)c3Cl)c(CCC#N)cc2c2c1cc([C@@H](C)NC(=O)C1(C)CC1)n2[C@H]1[C@H]2CN[C@@H]1C2 (stereo partly drawn) [Example 61, N-((1R)-1-(1-((1R,4R,5S)-2-Azabicyclo[2.1.1]hexan-5-yl)-8-(2-cyanoethyl)-7-(2,3-dichlorophenyl)-6-fluoro-4-(1-hydroxyethyl)-1H-pyrrolo[3,2-c]quinolin-2-yl)ethyl)-1-methylcyclopropane-1-carboxamide]
< 100	+++ (a Caco-2 value of >1)	< 100	CC(O)c1nc2c(F)c(-c3cccc(Cl)c3Cl)c(CCC#N)cc2c2c1cc([C@H]1C[C@H]3C[C@H]3N1C(=O)C1(C)CC1)n2[C@H]1[C@H]2CN[C@@H]1C2 (stereo partly drawn) [Example 62, 3-(1-((1R,4R,5S)-2-Azabicyclo[2.1.1]hexan-5-yl)-7-(2,3-dichlorophenyl)-6-fluoro-4-(1-hydroxyethyl)-2-((1R,3R,5R)-2-(1-methylcyclopropane-1-carbonyl)-2-azabicyclo[3.1.0]hexan-3-yl)-1H-pyrrolo[3,2-c]quinolin-8-yl)propanenitrile]
< 100	+++ (a Caco-2 value of >1)	< 100	CC(O)c1nc2c(F)c(-c3cccc(Cl)c3Cl)c(CCC#N)cc2c2c1cc([C@H]1C[C@H]3C[C@H]3N1C(=O)C1(F)CC1)n2[C@H]1[C@H]2CN[C@@H]1C2 (stereo partly drawn) [Example 63, 3-(1-((1R,4R,5S)-2-Azabicyclo[2.1.1]hexan-5-yl)-7-(2,3-dichlorophenyl)-6-fluoro-2-((1R,3R,5R)-2-(1-fluorocyclopropane-1-carbonyl)-2-azabicyclo[3.1.0]hexan-3-yl)-4-(1-hydroxyethyl)-1H-pyrrolo[3,2-c]quinolin-8-yl)propanenitrile]
< 100	+++ (a Caco-2 value of >1)	100 to 1000	Cc1nc2c(F)c(-c3cccc(Cl)c3Cl)c(CCC#N)cc2c2c1cc([C@H]1C[C@H]3C[C@H]3N1C(=O)C1(F)CC1)n2[C@H]1[C@H]2CN[C@@H]1C2 [Example 64, 3-(1-((1R,4R,5S)-2-Azabicyclo[2.1.1]hexan-5-yl)-7-(2,3-dichlorophenyl)-6-fluoro-2-((1R,3R,5R)-2-(1-fluorocyclopropane-1-carbonyl)-2-azabicyclo[3.1.0]hexan-3-yl)-4-methyl-1H-pyrrolo[3,2-c]quinolin-8-yl)propanenitrile]
< 100	+++ (a Caco-2 value of >1)	< 100	CC(O)c1nc2c(F)c(-c3cccc(Cl)c3Cl)c(CCC#N)cc2c2c1cc([C@@H](C)NC(=O)C1(F)CC1)n2[C@H]1[C@H]2CN[C@@H]1C2 (stereo partly drawn) [Example 65, N-((1R)-1-(1-((1R,4R,5S)-2-Azabicyclo[2.1.1]hexan-5-yl)-8-(2-cyanoethyl)-7-(2,3-dichlorophenyl)-6-fluoro-4-(1-hydroxyethyl)-1H-pyrrolo[3,2-c]quinolin-2-yl)ethyl)-1-fluorocyclopropane-1-carboxamide]
< 100	+++ (a Caco-2 value of >1)	< 100	CC(O)c1nc2c(F)c(-c3cccc(Cl)c3Cl)c(CCC#N)cc2c2c1cc([C@@H](C)NC(=O)C1(F)CCC1)n2[C@H]1[C@H]2CN[C@@H]1C2 (stereo partly drawn) [Example 66, N-((1R)-1-(1-((1R,4R,5S)-2-azabicyclo[2.1.1]hexan-5-yl)-8-(2-cyanoethyl)-7-(2,3-dichlorophenyl)-6-fluoro-4-(1-hydroxyethyl)-1H-pyrrolo[3,2-c]quinolin-2-yl)ethyl)-1-fluorocyclobutane-1-carboxamide]
< 100	+++ (a Caco-2 value of >1)	< 100	Cc1cc(C(C)c2cc3c(C)nc4c(F)c(-c5cccc(Cl)c5C)c(CCC#N)cc4c3n2[C@H]2[C@H]3CN[C@@H]2C3)c(=O)n(C)n1 (stereo partly drawn) [Example 67, 3-(1-((1R,4R,5S)-2-azabicyclo[2.1.1]hexan-5-yl)-7-(3-chloro-2-methylphenyl)-2-(1-(2,6-dimethyl-3-oxo-2,3-dihydropyridazin-4-yl)ethyl)-6-fluoro-4-methyl-1H-pyrrolo[3,2-c]quinolin-8-yl)propanenitrile]
< 100	+++ (a Caco-2 value of >1)	< 100	Cc1nc2c(F)c(-c3cccc(Cl)c3Cl)c(CCC#N)cc2c2c1cc([C@@H](C)NC(=O)c1ccncn1)n2[C@H]1[C@H]2CN[C@@H]1C2 [Example 68, N-((1R)-1-(1-((1R,4R,5S)-2-azabicyclo[2.1.1]hexan-5-yl)-8-(2-cyanoethyl)-7-(2,3-dichlorophenyl)-6-fluoro-4-methyl-1H-pyrrolo[3,2-c]quinolin-2-yl)ethyl)pyrimidine-4-carboxamide]
< 100	+++ (a Caco-2 value of >1)	< 100	Cc1nc2c(F)c(-c3cccc(Cl)c3Cl)c(CCC#N)cc2c2c1cc([C@@H](C)NC(=O)c1cccnn1)n2[C@H]1[C@H]2CN[C@@H]1C2 [Example 69, N-((1R)-1-(1-((1R,4R,5S)-2-azabicyclo[2.1.1]hexan-5-yl)-8-(2-cyanoethyl)-7-(2,3-dichlorophenyl)-6-fluoro-4-methyl-1H-pyrrolo[3,2-c]quinolin-2-yl)ethyl)pyridazine-3-carboxamide]
< 100	+++ (a Caco-2 value of >1)	< 100	Cc1nc2c(F)c(-c3cccc(Cl)c3Cl)c(CCC#N)cc2c2c1cc([C@@H](C)NC(=O)N1CC(F)(F)C1)n2[C@H]1[C@H]2CN[C@@H]1C2 [Example 70, N-((1R)-1-(1-((1R,4R,5S)-2-azabicyclo[2.1.1]hexan-5-yl)-8-(2-cyanoethyl)-7-(2,3-dichlorophenyl)-6-fluoro-4-methyl-1H-pyrrolo[3,2-c]quinolin-2-yl)ethyl)-3,3-difluoroazetidine-1-carboxamide]
< 100	+++ (a Caco-2 value of >1)	< 100	Cc1nc2c(F)c(-c3cccc(Cl)c3Cl)c(CCC#N)cc2c2c1cc([C@@H](C)Nc1cnn(C)c1)n2[C@H]1[C@H]2CN[C@@H]1C2 [Example 71, 3-(1-((1R,4R,5S)-2-azabicyclo[2.1.1]hexan-5-yl)-7-(2,3-dichlorophenyl)-6-fluoro-4-methyl-2-((R)-1-((1-methyl-1H-pyrazol-4-yl)amino)ethyl)-1H-pyrrolo[3,2-c]quinolin-8-yl)propanenitrile]
< 100	+++ (a Caco-2 value of >1)	< 100	CN(C)C(=O)c1ccc(-c2nc3c(F)c(-c4cccc(Cl)c4Cl)c(CCC#N)cc3c3c2cc([C@H]2CCCN2C(=O)C2(F)CC2)n3[C@H]2[C@H]3CN[C@@H]2C3)cn1 [Example 72, 5-(1-((1R,4R,5S)-2-Azabicyclo[2.1.1]hexan-5-yl)-8-(2-cyanoethyl)-7-(2,3-dichlorophenyl)-6-fluoro-2-((R)-1-(1-fluorocyclopropane-1-carbonyl)pyrrolidin-2-yl)-1H-pyrrolo[3,2-c]quinolin-4-yl)-N,N-dimethylpicolinamide]
< 100	+++ (a Caco-2 value of >1)	< 100	COC(=O)N1CCC[C@@H]1c1cc2c(-c3ccc(CN(C)C)c(F)c3F)nc3c(F)c(-c4cccc(Cl)c4Cl)c(CCC#N)cc3c2n1[C@H]1[C@H]2CN[C@@H]1C2 [Example 73, methyl (2R)-2-(1-((1R,4R,5S)-2-Azabicyclo[2.1.1]hexan-5-yl)-8-(2-cyanoethyl)-7-(2,3-dichlorophenyl)-4-(4-((dimethylamino)methyl)-2,3-difluorophenyl)-6-fluoro-1H-pyrrolo[3,2-c]quinolin-2-yl)pyrrolidine-1-carboxylate]
